How the values were obtained:
[1] = Elimination half-life in rats after single oral gavage; type: in vivo; conditions: SD, rat, plasma
Protocol: Preparation of Single-Dose Oral Formulation: 25.3800 g of meglumine (Sigma) was weighed and dissolved in 80 mL of deionized water. The resulting mixture was stirred for 35 minutes and the volume was made up to 130 mL to obtain a 1M meglumine solution. 4.31 mg, 13.54 mg, and 40.59 mg of Comp-1 were weighed separately and then added to 28.676 mL, 27 mL, and 27 mL of the 1M meglumine solution respectively. The resulting mixtures each was stirred for 31 minutes and sonicated for 5 minutes to obtain colorless transparent solutions with Comp-1 concentrations of 0.15 mg/mL, 0.5 mg/mL, and 1.5 mg/mL, respectively.
18 SD rats (half male, half female) were randomly divided into 3 groups (3 males and 3 females per group). Comp-1 was administered by oral gavage at doses of 1.5, 5.0, and 15.0 mg/kg. Blood samples were collected before administration and at 0.25, 0.5, 1, 2, 4, 6, 8, 24, 48, and 72 hours after administration. The oral vehicle was a 1 M meglumine solution in deionized water, and the administration volume was 10 mL/kg for all doses. All collected plasma samples were stored at −75±15° C. until analysis. The concentration of Comp-1 in SD rat plasma was determined using liquid chromatography-tandem mass spectrometry with Tolbutamide as an internal standard. The mass spectrometer utilized an electrospray ionization source operating in positive ion mode. The precursor-to-product ion transitions monitored were m/z 381.2→306.3 for Comp-1 and m/z 270.9->155.0 for Tolbutamide. Pharmacokinetic parameters of Comp-1 were calculated by software Phoenix™ WinNonlin version 6.1 using a non-compartmental model. Pharmacokinetic data were calculated using a linear log trapezoidal method with a weighting of 1/Y*Y. Samples with concentrations below the lower limit of quantification were not included in the calculation of pharmacokinetic parameters. Microsoft Excel 2010 was used to calculate the mean values of various parameters, with the mean determined from the pharmacokinetic parameters of each animal. The mean elimination half-lives of Comp-1 in male rats at the doses of 1.5, 5.0, and 15.0 mg/kg were: 6.72 hours, 15.0 hours, and 10.2 hours, respectively. The mean elimination half-lives of Comp-1 in female rats at the doses of 1.5, 5.0, and 15.0 mg/kg were: 12.9 hours, 5.72 hours, and 24.9 hours, respectively.

[2] = test system: patients with chronic kidney disease anemia; experiment: Phase 2 clinical trial in patients with chronic kidney disease anemia (hemoglobin, adverse events); type: in vivo, human; conditions: for mean rate of hemoglobin increase: end of dose-fixing period (5 weeks); for mean hemoglobin level: Weeks 6-14 (entire titration period); for cumulative percentage of patients achieving target hemoglobin range 10.0-11.0 g/dL and increase of ≥1.0 g/dL from baseline: entire 13-week treatment period; for TEAE, % of patients / TEAE, NE (total number of adverse events) / TEAE, n (number of patients experiencing adverse events) / Treatment-related TEAE, % of patients / Treatment-related TEAE, NE (total number of adverse events) / Treatment-related TEAE, n (number of patients experiencing adverse events): titration period
Protocol: A Phase 2, randomized, double-blind, placebo-controlled clinical study of Comp-1 in patients with chronic kidney disease anemia included a total treatment period of 13 weeks, divided into an initial 5-week dose-fixing period and a subsequent 8-week dose adjustment period (also referred to as the titration period). A total of 113 patients with renal anemia were initially randomized into the dose-fixing period. During the dose-fixing period, patients with renal anemia received Comp-1 8 mg, 12 mg, or 16 mg three times weekly (TIW), or a matching placebo. At the Week 6 study visit, a total of 44 eligible patients underwent a second randomization into the dose adjustment period (titration period). […] The starting dose in this phase was the same as the dose during the dose-fixing period and could be adjusted based on weekly hemoglobin values to maintain hemoglobin within the target range of 10.0-11.0 g/dL, inclusive. To maintain blinding, patients in the placebo group underwent pseudo-randomization and continued to receive matching placebo. During the study, patients were visited weekly to measure the primary efficacy indicator, i.e. hemoglobin level, and safety comparisons were made for patients entering the titration period according to dosing frequency (three times weekly (TIW) dosing vs. once weekly (QW) dosing).
The primary efficacy objective of the study was to compare the mean rate of hemoglobin increase (g/dL/week) at the end of the dose-fixing period (i.e., after 5 weeks of dosing) between the three Comp-1 dose groups and the placebo group. […] In the analysis of hemoglobin during the adjustment period (titration period), at Week 14 (i.e., at the end of the titration period or after 13 weeks of dosing), the mean levels of hemoglobin in the pooled Comp-1 TIW group and QW group were 10.74 g/dL and 10.09 g/dL, respectively, both maintained within the study target range of 10.0-11.0 g/dL inclusive, while the mean level of hemoglobin in the placebo group was 9.57 g/dL. During the later part of the adjustment period (titration period), i.e., Weeks 10-14, the mean levels of hemoglobin were >10.0 g/dL in all dose frequency groups including the placebo group: 10.73 g/dL and 10.77 g/dL in the pooled Comp-1 TIW and QW groups, respectively, and 10.26 g/dL in the placebo group. The change in hemoglobin level from baseline was 1.60 g/dL and 1.63 g/dL in the pooled Comp-1 TIW and QW groups, respectively, and 0.48 g/dL in the placebo group. […] In the analysis of hemoglobin throughout the entire adjustment period (titration period), i.e., Weeks 6-14, the mean hemoglobin levels in the pooled Comp-1 TIW and QW groups were 10.84 g/dL and 10.91 g/dL, respectively, compared to 10.23 g/dL in the placebo group. […] Throughout the entire 13-week treatment period, the cumulative percentage of patients achieving the target hemoglobin range of 10.0-11.0 g/dL inclusive and an increase of ≥1.0 g/dL from baseline was similar between the pooled Comp-1 TIW and QW groups: 100% and 90%, respectively, compared to 40% in the placebo group. Table 3 below provides a safety comparison for patients entering the titration period according to dosing frequency.
TEAE: treatment emergent adverse event; Treatment-related TEAE: treatment emergent adverse event considered related to treatment; N: number of patients; NE: total number of adverse events occurring; n: number of patients experiencing adverse events.

O=C(O)CNC(=O)C1=C(O)C2(CCCC2)n2c(ccc2-c2ccccc2)C1=O [Comp-1, (6′-hydroxy-8′-oxo-3′-phenyl-8′H-spiro[cyclopentane-1,5′-indolizine]-7′-carbonyl)glycine]
half-life ([1]; female rats, 1.5 mg/kg oral gavage): 12.9 h
half-life ([1]; female rats, 5.0 mg/kg oral gavage): 5.72 h
half-life ([1]; female rats, 15.0 mg/kg oral gavage): 24.9 h
half-life ([1]; male rats, 1.5 mg/kg oral gavage): 6.72 h
half-life ([1]; male rats, 5.0 mg/kg oral gavage): 15 h
half-life ([1]; male rats, 15.0 mg/kg oral gavage): 10.2 h
mean rate of hemoglobin increase ([2]; 8 mg TIW): 0.2839 g/dL/week
mean rate of hemoglobin increase ([2]; 12 mg TIW): 0.3893 g/dL/week
mean rate of hemoglobin increase ([2]; 16 mg TIW): 0.4817 g/dL/week
mean level of hemoglobin ([2]; Week 14, pooled QW group): 10.09 g/dL
mean level of hemoglobin ([2]; Week 14, pooled TIW group): 10.74 g/dL
mean hemoglobin level ([2]; pooled QW group): 10.91 g/dL
mean hemoglobin level ([2]; pooled TIW group): 10.84 g/dL
change in hemoglobin from baseline ([2]; Weeks 6-14, pooled QW group): 1.78 g/dL
change in hemoglobin from baseline ([2]; Weeks 6-14, pooled TIW group): 1.71 g/dL
change in hemoglobin level from baseline ([2]; Weeks 10-14, pooled QW group): 1.63 g/dL
mean level of hemoglobin ([2]; Weeks 10-14, pooled QW group): 10.77 g/dL
change in hemoglobin level from baseline ([2]; Weeks 10-14, pooled TIW group): 1.60 g/dL
mean level of hemoglobin ([2]; Weeks 10-14, pooled TIW group): 10.73 g/dL
cumulative percentage of patients achieving target hemoglobin range 10.0-11.0 g/dL and increase of ≥1.0 g/dL from baseline ([2]; pooled QW group): 90%
cumulative percentage of patients achieving target hemoglobin range 10.0-11.0 g/dL and increase of ≥1.0 g/dL from baseline ([2]; pooled TIW group): 100%
TEAE, % of patients ([2]; Pooled QW, N = 20): 70.0%
TEAE, NE (total number of adverse events) ([2]; Pooled QW, N = 20): 18
TEAE, n (number of patients experiencing adverse events) ([2]; Pooled QW, N = 20): 14
Treatment-related TEAE, % of patients ([2]; Pooled QW, N = 20): 5.0%
Treatment-related TEAE, NE (total number of adverse events) ([2]; Pooled QW, N = 20): 1
Treatment-related TEAE, n (number of patients experiencing adverse events) ([2]; Pooled QW, N = 20): 1
TEAE, % of patients ([2]; Pooled TIW, N = 19): 73.7%
TEAE, NE (total number of adverse events) ([2]; Pooled TIW, N = 19): 39
TEAE, n (number of patients experiencing adverse events) ([2]; Pooled TIW, N = 19): 14
Treatment-related TEAE, % of patients ([2]; Pooled TIW, N = 19): 10.5%
Treatment-related TEAE, NE (total number of adverse events) ([2]; Pooled TIW, N = 19): 2
Treatment-related TEAE, n (number of patients experiencing adverse events) ([2]; Pooled TIW, N = 19): 2

Source: patent US20260199305A1, “LONG-ACTING ORAL PHARMACEUTICAL COMPRISING HYPOXIA-INDUCIBLE FACTOR PROLYL HYDROLASE INHIBITOR AND USE THEREOF” (Kind Pharmaceutical, priority 2023, published 2026)
